Measurements taken from patent publication US10259846B2, “Bouvardin derivatives and therapeutic uses thereof” (The Regents of the University of Colorado, a body corporate, priority 2012, dated 2019).
Where two headings read alike, the source gives them in different places.

Key:
[1] = tested on: Det562 Head and Neck cancer cells; assay: Exposure-time cell viability assay, Det562; format: cell-based, human; conditions: IC70 concentration; viability read after 5 days
Experimental: (§1) The cell growth assays used to measure IC50 and synergy involve leaving the drug on the cells for 5 days. However, this length of time may or may not be necessary to see efficacy. To address this, two Bouvardin derivatives (meta Br-N-29-H RA-VII and mera Cl-N-29-H RA-VII) were exposed to different melanoma and head and neck cells for various amounts of time. Cells were plated at 4,000 cells per well in 96 well plates and allowed to adhere for 24 hrs before adding meta Br-N-29-H RA-VII or meta Cl-N-29-H RA-VII at an IC70 concentration for each cell line. The drug was removed after various times (12 hr, 1 day, 2 days, 3 days, 4 days) by replacement with fresh media. After 5 days, cell viability was determined using CellTiter-Glo® Luminescent Cell Viability Assay (Promega G7570), which measures ATP levels. Bouvardin or BVD at 12 hr exposure was used as a control. […] While the maximal effect of meta Br-N-29-H RA-VII was not reached at the same time for all of the lines, the drug is affecting each cell line to some degree by 24 hrs.

rabbit reticulocytes = assay: In vitro translation assay (luciferase mRNA); format: biochemical; conditions: luciferase activity; 15 minutes at 37° C.
Experimental: In vitro translation assays were performed in rabbit reticulocytes (Promega) according to manufacturer's instruction, in the presence or absence of drug at final concentrations shown. Luciferase mRNA provided in the kit was used at a final concentration of 1 μg/μl. The reaction samples were incubated for 15 minutes at 37° C. and quenched by dilution with water. Luciferase activity was measured using a plate reader Multi-Mode Microplate Reader (Synergy 2 by BioTek) immediately after luciferase substrate addition.

Melanoma cells = assay: Growth inhibition of Melanoma cells in culture, alone and combined; format: cell-based, human
Description: (§2) The ability of bouvardin and meta Br-N-29-H RA-VII to inhibit the growth of Melanoma cells in culture was studied. […] Both compounds show greater efficacy in higher grade, metastatic melanoma cell lines than in a lower grade melanoma line.
Synergy is seen in cell lines with a wide range of sensitivity to PLX4032, i.e. both PLX4032-sensitive and PLX4032-resistant lines.

HS294T melanoma cells [2] = assay: Clonogenic assay (sulfhorhodamine B), HS294T; format: cell-based, human
Experimental: HS294T melanoma cells were plated at a low concentration to allow for the formation of single colonies. These cells were then treated with meta Br-N-29-H RA-VII alone, PLX4032 alone and a combination of the two and then processed using the quantitative sulfhorhodamine B assay.

T98G glioma cells = assay: Cell growth assay (CellTiter-Glo), T98G glioma cells; format: cell-based; conditions: for inhibitory effects on cell growth: single agent, 10 μM and 100 μM, 6 days (FIG. 11)
Experimental: (§3) Two glioma cell lines were used (U87MG and T98G). The growth inhibitory effects of chemical compounds were evaluated using CellTiter-Glo® Luminescent Cell Viability Assay (Promega G7570). The CellTiter-Glo® Reagent lyses cells and generates a luminescent signal proportional to the amount of ATP present. In this assay, 4,000 viable cells were plated in 100 μL of growth medium in 96-well plates (Corning). Following an overnight incubation, drugs were added in varying concentrations and incubated for 6 days. 100 μL of CellTiter-Glo® Reagent was added to each well. Plates were incubated with mixing at room temperature for 30 minutes. Luminescence of each well was measured using an automated plate reader.

HS294T melanoma cells [3] = assay: Exposure-time cell viability assay, HS294T; format: cell-based, human; conditions: IC70 concentration; viability read after 5 days
Experimental: as §1

[4] = tested on: A375 (higher grade) melanoma cell line; assay: Cell growth assay IC50, A375 melanoma cell line; format: cell-based, human
Experimental: as §3, with “Seven cell lines, lung cancer cell line H157, HNC” for “Two glioma”, “lines Det562 and FaDu, and melanoma cell lines WM35, A375, 1205Lu and HS294T” for “lines”, “studied.” for “used (U87MG and T98G).”, “˜4,000” for “4,000”, “reader. Survival was plotted against drug concentration to compute IC50.” for “reader.”
as §2

[5] = Combination Index from cell growth assays with targeted agents (FIG. 22); format: cell-based; conditions: over a range of FA (fraction affected)
Experimental: The combinations of meta Br-N-29-H RA-VII and three commercially available targeted agents (PLX4032 BRAF inhibitor, TAK-333 MEK inhibitor and PF-0491502 P13K/TOR dual inhibitor) were tested at various drug doses. Combination Index values were computed from cell growth assays as previously described (Gladstone et al., Disease Models and Mechanisms, 2012, PMID: 22344740). The tables show average CI values for the combination of meta Br-N-29-H RA-VII and each targeted agent. FA=‘fraction affected’ or fraction of cells killed, reflecting the drug doses used. The CI values that indicate three modes on drug-drug interaction are indicated in the legend and differentially shaded in the table. CI˜1 denote additive action (un-shaded). CI>1 denote antagonistic action (darker shade).

1205Lu melanoma cells = assay: Exposure-time cell viability assay, 1205Lu; format: cell-based, human; conditions: IC70 concentration; viability read after 5 days
Experimental: as §1

[6] = tested on: WM35 (lower grade, radial phase) melanoma cell line; assay: Cell growth assay IC50, WM35 melanoma cell line; format: cell-based, human
Experimental: as §3, with “Seven cell lines, lung cancer cell line H157, HNC” for “Two glioma”, “lines Det562 and FaDu, and melanoma cell lines WM35, A375, 1205Lu and HS294T” for “lines”, “studied.” for “used (U87MG and T98G).”, “˜4,000” for “4,000”, “reader. Survival was plotted against drug concentration to compute IC50.” for “reader.”
as §2

[7] = tested on: HS294T metastatic melanoma cells; assay: Combination with PLX4032, combination index, HS294T; format: cell-based, human; conditions: combination with PLX4032, wide range of drug concentrations
Description: The dotted line indicates fraction survival expected if meta Br-N-29-H RA-VII and PLX4032 are act in an additive manner. The observed effect of the combination is […], indicating synergy. This represents a subset of a larger data set that includes the result of a wide range of drug doses. The complete dataset is in FIGS. 16 and 17.
CI of less than 1 indicates synergy, which is seen for a wide range of drug concentrations. […] This illustrates that at doses that show synergy, significant fractions of cells are killed or inhibited from growing.

HS294T melanoma cells [8] = assay: Combination with ionizing radiation, combination index, HS294T; format: cell-based, human; conditions: range of drug doses and radiation
Description: CI values are shown for a range of drug doses and radiation. CI<1 indicates synergy.

A375 melanoma cells = assay: Exposure-time cell viability assay, A375; format: cell-based, human; conditions: IC70 concentration; viability read after 5 days
Experimental: as §1

[9] = tested on: FaDu Head and Neck cancer cells; assay: Exposure-time cell viability assay, FaDu; format: cell-based, human; conditions: IC70 concentration; viability read after 5 days
Experimental: as §1

U87MG glioma cells = assay: Cell growth assay (CellTiter-Glo), U87MG glioma cells; format: cell-based; conditions: single agent; 10 μM and 100 μM; 6 days (FIG. 10)
Experimental: as §3

mice = conditions: cited from earlier work
[10] = tested on: human primary fibroblasts; assay: Bouvardin on primary versus oncogene-transformed human fibroblasts; format: cell-based; conditions: fibroblasts transformed with more and more oncogenes (FIG. 16)
[11] = tested on: human primary fibroblasts; conditions: published report (Dolma et al., 2003); cited from earlier work
[12] = combination of meta Br-N-29-H RA-VII and PLX4032

Compound: COc1ccc(C[C@H]2C(=O)N[C@@H](C)C(=O)N(C)[C@H]3Cc4ccc(cc4)Oc4cc(c(Br)cc4OC)C[C@H](NC3=O)C(=O)N[C@H](C)C(=O)N[C@@H](C)C(=O)N2C)cc1 [meta Br-N-29-H RA-VII]
- exposure time to maximal response [1]: 4 days
- response at 12 hr exposure [1]: partial response
- inhibition of protein translation in in vitro translation assay (rabbit reticulocytes): dose-dependent response
- times less effective (greater IC50) than bouvardin (Melanoma cells; Melanoma cells): 5 to 10 times
- synergy with BRAF inhibitor Vemurafenib (PLX4032) (Melanoma cells; combination, PLX4032-sensitive and PLX4032-resistant lines): synergizes best and over a wide range of meta Br-N-29-H RA-VII doses
- survival compared to untreated cells (HS294T melanoma cells [2]; 20 nM, alone): greater than 90%
- predicted survival if the two treatments were additive (HS294T melanoma cells [2]; [12]): 50%
- survival compared to untreated cells (HS294T melanoma cells [2]; [12]): less than 20%
- response in cell growth assay (T98G glioma cells; T98G glioma cells (FIG. 12)): dose-dependent response
- exposure time to maximal response (same as 5 day) (HS294T melanoma cells [3]): 3 to 4 days
- response at 12 hr exposure (HS294T melanoma cells [3]): partial response
- IC50 ([4]; Homo sapiens, A-375): 100 nM
- interaction (average Combination Index) with PF-0491502 P13K/TOR dual inhibitor [5]: displays synergy
- interaction (average Combination Index) with PLX4032 BRAF inhibitor [5]: displays synergy
- interaction (average Combination Index) with TAK-333 MEK inhibitor [5]: displays synergy
- exposure time to maximal response (same as 5 day) (1205Lu melanoma cells): 4 days
- response at 12 hr exposure (1205Lu melanoma cells): partial response
- IC50 ([6]; Homo sapiens): 1170 nM
- interaction with PLX4032 (combination index; CI of less than 1 indicates synergy) [7]: synergize
- interaction with ionizing radiation (combination index; CI<1 indicates synergy) (HS294T melanoma cells [8]): shows synergy
- exposure time to maximal response (same as 5 day) (A375 melanoma cells): 2 to 3 days
- response at 12 hr exposure (A375 melanoma cells): partial response
- exposure time to maximal response [9]: 4 days
- response at 12 hr exposure [9]: no response

Compound: COc1ccc(C[C@H](NC(=O)[C@H](Cc2ccc(O)cc2)N(C)C(=O)OC(C)(C)C)C(=O)OCc2ccccc2)cc1Br [Compound 1-7]
- inhibition of protein translation in in vitro translation assay (rabbit reticulocytes): do not appear to inhibit protein translation
- inhibitory effects on cell growth (T98G glioma cells): potent inhibitory effects
- inhibitory effects on cell growth (U87MG glioma cells): potent inhibitory effects

Compound: COc1cccc2c1C(=O)c1c(O)c3c(c(O)c1C2=O)C[C@@](O)(C(=O)CO)C[C@@H]3O[C@H]1C[C@H](N)[C@H](O)[C@H](C)O1 [doxorubicin]
- LD50 (mice): 12.5 mg/kg

Compound: COc1ccc(C[C@H](NC(=O)[C@H](Cc2ccc(O)cc2)N(C)C(=O)OC(C)(C)C)C(=O)OCc2ccccc2)cc1B(O)O [Compound 1-9]
- inhibition of protein translation in in vitro translation assay (rabbit reticulocytes): do not appear to inhibit protein translation
- inhibitory effects on cell growth (T98G glioma cells): potent inhibitory effects
- inhibitory effects on cell growth (U87MG glioma cells): potent inhibitory effects

Compound: COc1ccc(C[C@H](NC(=O)[C@H](Cc2ccc(O)cc2)N(C)C(=O)OC(C)(C)C)C(=O)OCc2ccccc2)cc1B1OC(C)(C)C(C)(C)O1 [Compound 1-8]
- inhibition of protein translation in in vitro translation assay (rabbit reticulocytes): do not appear to inhibit protein translation
- inhibitory effects on cell growth (T98G glioma cells): potent inhibitory effects
- inhibitory effects on cell growth (U87MG glioma cells): potent inhibitory effects

Compound: bouvardin
- IC50 [4]: 12 nM
- IC, for bouvardin [10]: decreases as human primary fibroblasts are transformed with more and more oncogenes
- IC50 [6]: 124 nM
- LD50 (mice): 12.4 mg/kg
- IC50 in primary human cells versus transformed cells [11]: higher IC50 (lower efficacy) in primary human cells than in transformed cells

Compound: CCCS(=O)(=O)Nc1ccc(F)c(C(=O)c2c[nH]c3ncc(-c4ccc(Cl)cc4)cc23)c1F [PLX4032, Vemurafenib, reference compound]
- survival compared to untreated cells (HS294T melanoma cells [2]; 500 nM, alone): around 60%
